Assay results reported in US9376424B2, “Methods for treating post traumatic stress disorder” (AZEVAN PHARMACEUTICALS, INC., priority 2010, dated 2016).
“Also recorded” adds a separate entry of the source.

Key:
[1] = molecular target: T1, V1b receptor (Homo sapiens, UniProt P47901); assay: Human or rat vasopressin V1b cell-based receptor binding assay; settings: selectivity table; read-out: inhibition data (Ki, nM), Receptor V1b
T1 construct: expressed in transfected cells; host or cells: CHO-K1 (ATCC), vector PCI-neo
T1 sequence (P47901 1-424): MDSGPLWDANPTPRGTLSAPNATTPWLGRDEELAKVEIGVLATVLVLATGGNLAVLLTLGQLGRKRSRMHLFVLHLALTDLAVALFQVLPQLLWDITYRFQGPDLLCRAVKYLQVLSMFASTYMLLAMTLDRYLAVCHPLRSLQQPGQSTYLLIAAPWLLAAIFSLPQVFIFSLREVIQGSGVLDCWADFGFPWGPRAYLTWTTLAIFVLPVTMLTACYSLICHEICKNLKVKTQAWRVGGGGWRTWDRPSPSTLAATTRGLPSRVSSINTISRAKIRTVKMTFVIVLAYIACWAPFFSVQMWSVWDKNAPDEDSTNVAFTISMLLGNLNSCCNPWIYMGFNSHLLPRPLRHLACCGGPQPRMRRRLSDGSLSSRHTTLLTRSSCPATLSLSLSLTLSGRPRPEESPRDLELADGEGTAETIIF
Excerpt: Human vasopression V1b receptor-expressing cells. Human vasopressin receptor 1b (hV1b) cDNA (see, Lolait et al., “Extrapituitary expression of the rat V1b vasopressin receptor gene” Proc. Natl. Acad. Sci. USA. 92:6783-7 (1995); de Keyzer et al., “Cloning and characterization of the human V3(V1b) pituitary vasopressin receptor” FEBS Lett. 356:215-20 (1994); Sugimoto et al., “Molecular cloning and functional expression of a cDNA encoding the human V1b vasopressin receptor” J. Biol. Chem. 269:27088-92 (1994)) was inserted into a mammalian cell expression vector PCI-neo (Promega) at EcoR1 site. The recombinant plasmid carrying hV1b cDNA was identified from transformed E. Coli clones and used for the transfection of Chinese hamster ovary cell (CHO-K1, ATCC). Two micrograms of hV1b receptor DNA was introduced into 10^5 CHO cells cultured in 6-well plate, using Fugene-6 mediated transfection technique (Boehringer Mannheim). Twenty-four hrs post transfection, Cells were then cultured under selection of G-418 (0.25 mg/ml) supplemented to the culture medium. Three days later, limited dilution was carried out to obtain single cell clones in 96-well plates. […]
Human or rat vasopression V1b cell-based receptor binding assay. […] Samples were counted in a liquid scintillation counter (Beckman LS3801). IC50 and Ki values were calculated using Prism Curve fitting software. […]

[2] = test system: resident male rats; assay: Resident-Intruder Model of Stress and Aggression in Rats (neuroimaging); assay type: in vivo, rat
Excerpt: Resident-Intruder Model of Stress and Aggression in Rats. Neuroimaging is used to assess the blockade of stress/arousal with test compound compared to control. The effect of AVN251-HCl on functional circuitry was examined using the imaging method for awake rats. Additional details of the assay are described in Ferris et al. (2008).
Male rats in the company of a female cage mate will piloerect in the presence of a male intruder. This piloerection is a sign of stress and aggressive intent and is associated with activation of stress/arousal circuits in the brain. […] Resident male rats from six male:female pairs were imaged while fully awake. During a single imaging session, these males were treated with vehicle or AVN251-HCl (5 mg/kg).
The total volume of brain activation for resident males confronted with their mate alone, mate plus intruder, and mate plus intruder in the presence of AVN251-HCl can be viewed as 3D models. While there appears to be a general decrease in BOLD signal in major regions with AVN251-HCl treatment, sexual motivation, as assessed by the presentation of a novel receptive female, was unaffected by V1a receptor blockade.
Stress circuit activation in response to an intruder male is assessed by obtaining brain scans viewed from a caudal/dorsal perspective as translucent shells. The localization of activated voxels is mapped as 3D volumes of activation, which are composed of 10 subjects each. Once fully registered and segmented, the statistical responses for each subject are averaged on a voxel-by-voxel basis. Those averaged voxels exceeding a 2.0% threshold are shown in their appropriate spatial location. Functional images are acquired on awake rats at 4.7 T.
The 3D volumes of activation are composed from results obtained with 10 subjects in each condition. […] Particular olfactory systems measured included the anterior olfactory nucleus, olfactory tubercle, piriform cortex, n. laterial olfactory tract, and entrorhinal cortex. Particular dopaminergic systems measured included the prelimbic cortex, accumbens, ventral pallidum, medial dorsal thalamus, and ventral tegmentum.
Awake rats were imaged when presented with their mate+an intruder, a highly stressful stimulus.

CN(Cc1cccc(C(F)(F)F)c1)C(=O)[C@@H](CC(=O)N1CCC(N2CCCCC2)CC1)N1C(=O)[C@@H](N2C(=O)OC[C@@H]2c2ccccc2)[C@H]1C=Cc1ccccc1 [Example 225, 2(R)-[[4-(Piperidinyl)piperidinyl]carbonylmethyl]-2-[3(S)-(4(S)-phenyloxazolidin-2-on-3-yl)-4(R)-(2-styryl)azetidin-2-on-1-yl]acetic acid N-methyl-N-(3-trifluoromethylbenzyl)amide]
Ki [1]: > 1000 nM | sexual motivation (reward circuit activation by novel receptive female) ([2]; awake resident male rats, 5 mg/kg, listed as AVN251, 5 mg/kg): activates reward circuitry; also recorded: remained intact | activation of stress/arousal circuit in response to male intruder (BOLD imaging) ([2]; awake resident male rats, mate plus intruder, 5 mg/kg): blocked the stress/arousal response | stress and aggressive motivation compared to controls ([2]; oral administration, intruder stimulus): blocked stress and aggressive motivation
